Reference: US20020076412A1, “METHODS FOR MODULATING THE IMMUNE SYSTEM” (priority 1987, published 2002)
Several values for one entry are separate records, joined by “and”; a condition that tells them apart may be missing. Equal values may be shown once.

B1: IFN-γ: cytokine administered in a pilot study to alleviate symptoms of MS (protein, UniProt P01579 24-161, looked up)
Interferon gamma: QDPYVKEAENLKKYFNAGHSDVADNGTLFLGILKNWKEESDRKIMQSQIVSFYFKLFKNFKDDQSIQKSVETIKEDMNVKFFNSNKKKRDDFEKLTNYSVTDLNVQRKAIHELIQVMAELSPAAKTGKRKRSQMLFRG

Columns and labels:
[1] = test system: CTL; test: CTL assay with substituted peptides; type: cell-based
[2] = test system: I-E; test: MHC I-E binding of substituted MBP 87-99 peptides; parameters: species or system rat; conditions: for IC50: read-out: (M*C) IC50 I-E Binding
Excerpt: A set of substituted peptides based on the sequence VHFFKNIVTPRT (Seq. ID No. 39), which is identical in rats, mice and human myelin basic protein (MBP), and corresponds to the I-E restricted epitope MBP 87-99 in the rat was produced. The peptides are shown in Table 1 (Seq. ID Nos. 39 to 52 respectively) MHC binding was measure say described in Smilek et al, 1991, Gautam et al 1992a&b.

[3] = test system: EAE (RAT); test: Ability of peptide mixed in CFA to cause EAE; type: in vivo; conditions: rats with EAE / rats immunized with the peptide alone in CFA
Method: (§1) The peptides were tested for their ability to cause EAE when mixed in CFA. […] It was seen that Ala4, Ala6, Ala7, and Ala8 are poor binders to I-E, implying that these residues 4F,6N,7I, and 8V are critical in MHC binding. […] Despite their inability to bind well to I-E, peptides ala6 and ala8 block the development of EAE when mixed with native peptide in a 5:1 molar ratio with CFA (0/6 sick with native plus ala6, 2/6 with native plus ala8, compared to 11/12 with native peptide alone). These competitor peptides Ala6 and Ala8, though poor I-E binders can apparently compete with native peptide and antagonize the T-cell receptor.

[4] = test system: 87-99 T-cell line; test: Competition assay for T-cell proliferation with native peptide; type: cell-based, Lewis rat; conditions: blocking of proliferation of 87-99 T-cell line when given with native peptide in vitro
Method: The second assay is a competition assay for T-cell proliferation. In this assay, antigen presenting spleen cells are first irradiated and then incubated with native MBP peptide for 2-4 hours. These cells are then washed and further cultured with T-cells reactive to MBP. Various concentrations of candidate peptide analogues are included in cultures for an additional 3 days. Following this incubation period, each culture is pulsed with 1 μCi of [^3H]-thymidine for an additional 12-18 hours. Cultures are then harvested on fiberglass filters and counted as above. Mean CPM and standard error of the mean are calculated from data determined in triplicate cultures. Peptide analogues which inhibit proliferation to approximately 25% at a concentration of 50 μM or greater are suitable for further screening.
(§2) Proliferation Assay: Proliferative responses were determined as described previously (Zamvil, et al., Nature 317:355, 1985). 1×10^4 T-cells were cultured with 5×10^5 X-irradiated (3,000 rad) PL/J splenic APC in 0.2 ml of culture media in 96 well flat-bottomed microtiter plates (Falcon, 3072). Peptides were added to culture giving the final concentrations indicated. At 48 hours incubation, each well was pulsed with 1 μCi ^3H-thymidine and harvested 16 hours later. The mean c.p.m. thymidine incorporation was calculated for triplicate cultures. Standard deviations from replicate cultures were within 10% mean value. Proliferation assays were performed in 96-well microtiter plates. Briefly, 2×10^4 T-cells and 10^6 irradiated thymocytes/well were incubated with stimulation medium only, Con A, or antigen. The cultures were harvested onto glass fiber filters and TdR uptake was assessed by liquid scintillation. Mean cpm were calculated from triplicate wells. In some experiments, competitor peptides, or anti I-A (OX-6) or anti-I-E antibodies (OX-17) were used to evaluate which MHC molecules were used to restrict the T-cell response, or to determine whether peptides could antagonize stimulation by the native peptide.
as §1

[5] = test system: 87-99 T-cell line; test: Proliferation of encephalitogenic T-cell line raised against native peptide (87-99); type: cell-based, rat; conditions: stimulation of T-cell line raised against native 87-99; grades negative to 4+, key not given
Method: As noted above, candidate peptide analogues are first tested for their property of causing or inhibiting proliferation of T-cell lines. In the proliferation assay, MBP reactive T-cell lines may be used as target cells. T-cell lines are established from lymph nodes taken from rats injected with MBP. Lymph node cells are isolated and cultured for 5 to 8 days with MBP and IL-2 as a source of T-cell growth factors. Viable cells are recovered and a second round of stimulation is performed with MBP and irradiated splenocytes as a source of growth factors. After 5 to 6 passages in this manner, the proliferative potential of the cell lines are determined. MBP-reactive lines are used in the proliferation assay. In this assay, T-cell lines are cultured for three days with various concentrations of peptide analogues and irradiated, autologous splenocytes. After three days, 0.5-1.0 μCi of [^3H]-thymidine is added for 12-16 hours. Cultures are harvested and incorporated counts determined. Mean CPM and standard error of the mean are calculated from triplicate cultures.
Development of MBP-specific T-cell lines in the rat: T-cell lines are selected from LN or SC (spinal cords) of rats immunized with guinea pig myelin basic protein or with MBP peptide (200 μg) in CFA. Supernatants from ConA-stimulated Lewis rat splenocytes are used as the source of IL-2 to expand Ag-stimulated T-cells.
as §2

[6] = test system: EAE (RAT); test: Prevention of EAE, competitor mixed with native peptide 5:1 in CFA; type: in vivo; conditions: sick/total; competitor plus native peptide 5:1 molar ratio in CFA; native line = native peptide alone
Method: as §1

[7] = test system: EAE; test: Competition with Ala6 and Ala5 for prevention of EAE with MBP (Table 3); type: in vivo, mice; conditions: peptide alone 0.2 mg in CFA; number with clinical EAE/number immunized; listed as Native MBP Peptide
Method: Incidence of EAE was expressed as number of mice with clinical EAE/number of mice immunized. For the induction of EAE, MBP peptide was dissolved in phosphate buffered saline (PBS) and emulsified with complete Freund's adjuvant (CFA) in a 1:1 mixture of PBS and CFA. Mice were injected with 0.2 ml emulsion at the base of the tail. On the same day and 48 h later, pertussis toxin (List Chemicals, Campbell, Calif.) was injected intravenously. Mice were examined daily for signs of EAE. For prevention of EAE, animals were immunized with MBP (0.2 mg), or in a mixture with the competitor peptide (1 mg).

[8] = test system: MS patients; conditions: cited from earlier work

Row | Molecule | CTL [1] | binding to I-E / MHC (in words) [2] | IC50 [2] | EAE (RAT) [3] | Comp Assay Prolif (RAT) [4] | Comp Assay Prolif (RAT) ([4]; listed as Ala8) | Prolif. [5] | EAE (RAT) ([3]; listed as Ala8) | EAE (RAT) [6] | Incidence of EAE [7] | specific response to MBP ([8]; in vivo) | patients with clinical exacerbation ([8]; within one month after initiation of treatment)
1 | CC(C)[C@H](N)C(=O)N[C@@H](Cc1c[nH]cn1)C(=O)N[C@@H](Cc1ccccc1)C(=O)N[C@@H](Cc1ccccc1)C(=O)N[C@@H](CCCCN)C(=O)N[C@@H](CC(N)=O)C(=O)N[C@@H](C)C(=O)N[C@H](C(=O)N[C@H](C(=O)N1CCC[C@H]1C(=O)N[C@@H](CCCNC(=N)N)C(=O)N[C@H](C(=O)N1CCC[C@H]1C(=O)O)[C@@H](C)O)[C@@H](C)O)C(C)C [Ala 7] | plus | poor binders | > 200 µM | 6/6 |  |  |  |  |  |  |  | 
2 | CC[C@H](C)[C@H](NC(=O)[C@H](CC(N)=O)NC(=O)[C@H](CCCCN)NC(=O)[C@H](Cc1ccccc1)NC(=O)[C@H](Cc1ccccc1)NC(=O)[C@H](Cc1c[nH]cn1)NC(=O)[C@@H](N)C(C)C)C(=O)N[C@@H](C)C(=O)N[C@H](C(=O)N1CCC[C@H]1C(=O)N[C@@H](CCCNC(=N)N)C(=O)N[C@H](C(=O)N1CCC[C@H]1C(=O)O)[C@@H](C)O)[C@@H](C)O [Ala 8] | plus | poor binders | > 200 µM | 1/15 | plus | can block proliferation | weakly stimulate | incapable of causing EAE | 2/6 |  |  | 
3 | CC[C@H](C)[C@H](NC(=O)[C@H](CC(N)=O)NC(=O)[C@H](CCCCN)NC(=O)[C@H](Cc1ccccc1)NC(=O)[C@H](Cc1ccccc1)NC(=O)[C@H](Cc1c[nH]cn1)NC(=O)[C@@H](N)C(C)C)C(=O)N[C@H](C(=O)N[C@H](C(=O)N1CCC[C@H]1C(=O)N[C@@H](CCCNC(=N)N)C(=O)N[C@H](C(=O)N1CCC[C@H]1C(=O)O)[C@@H](C)O)[C@@H](C)O)C(C)C [native, reference compound] | nega- |  | 14 µM | 21/21 | MINUS |  |  |  | 11/12 | 11/12 and 6/6 |  | 
4 | IFN-γ: cytokine administered in a pilot study to alleviate symptoms of MS |  |  |  |  |  |  |  |  |  |  | increase | 
5 | B1 |  |  |  |  |  |  |  |  |  |  |  | 7 of 18
